Our source for the kon values is article PMC10724200, “A peptide derived from interleukin-10 exhibits potential anticancer activity and can facilitate cell targeting of gold nanoparticles loaded with anticancer therapeutics” (Communications Chemistry, 2023).

One assay has as its target T1, IL-1R1 (Homo sapiens, UniProt P14778).
T1 sequence (P14778 18-569): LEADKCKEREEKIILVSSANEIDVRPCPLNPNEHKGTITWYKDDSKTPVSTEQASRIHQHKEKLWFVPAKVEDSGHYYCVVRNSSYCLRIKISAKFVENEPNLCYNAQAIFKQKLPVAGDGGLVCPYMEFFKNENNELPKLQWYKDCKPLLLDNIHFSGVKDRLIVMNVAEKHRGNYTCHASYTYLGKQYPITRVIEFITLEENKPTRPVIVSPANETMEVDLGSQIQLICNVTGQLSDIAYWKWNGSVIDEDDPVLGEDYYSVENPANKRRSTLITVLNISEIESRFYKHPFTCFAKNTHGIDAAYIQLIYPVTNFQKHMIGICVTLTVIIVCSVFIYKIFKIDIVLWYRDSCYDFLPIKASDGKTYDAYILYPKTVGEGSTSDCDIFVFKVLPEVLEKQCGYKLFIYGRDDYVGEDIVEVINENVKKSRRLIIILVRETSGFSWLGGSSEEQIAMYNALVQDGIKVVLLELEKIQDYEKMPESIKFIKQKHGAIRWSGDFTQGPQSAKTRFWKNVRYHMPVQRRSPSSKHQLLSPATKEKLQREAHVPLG
Nature of the assay: Biolayer interferometry kinetic assay, binding to control receptor IL-1R1. The note with it: read-out: ka (association constant). The protocol:
(§1) Biolayer interferometry (BLI) was applied to analyze peptide–receptor protein interactions. BLI was performed with a ForteBio Octet RED96e System (Sartorius AG, Göttingen, Germany) by using high-precision streptavidin and biosensors. The biosensors were hydrated in a plate for 15 min and then loaded with 10 μg/mL recombinant receptor human IL-10Ra protein and incubated for 150 s. […] After the association step, the biosensor was shifted to the dissociation buffer, phosphate-buffered saline (PBS) with 0.05% Tween20, for dissociation. Dissociation was recorded until equilibrium was reached (120 s).
To measure the binding ability of the designed and negative control peptides (NM25, NK20, NK20a, and control scramble peptide CG20) to the receptor IL-10Ra in vitro, BLI experiments were performed. […] When binding with IL-10Ra, the association constant (ka) of NK20 and NK20a was 1.02 × 10^4 (1/Ms) and 8.14 × 10^3 (1/Ms), respectively. […] The equilibrium dissociation constant (KD) of NK20a interactions with IL-1R1was approximately 2000 times greater than that with IL-10Ra, and the calculated dissociation constant of NK20a interactions with IL-1R1 was to be 5000 times greater than that with IL-10Ra interactions (Table 2). […]
Fig. 3 BLI kinetic assays of the designed peptides binding to the receptor IL-10Ra. […] Dissociation was recorded at 120 s after the binding started (black dotted line).
For orientation: Biolayer interferometry detects binding as a change in optical thickness at a sensor tip.

The target of assay [1] is T2, recombinant receptor human IL-10Ra protein (Homo sapiens, UniProt Q13651).
T2 sequence (Q13651 22-578): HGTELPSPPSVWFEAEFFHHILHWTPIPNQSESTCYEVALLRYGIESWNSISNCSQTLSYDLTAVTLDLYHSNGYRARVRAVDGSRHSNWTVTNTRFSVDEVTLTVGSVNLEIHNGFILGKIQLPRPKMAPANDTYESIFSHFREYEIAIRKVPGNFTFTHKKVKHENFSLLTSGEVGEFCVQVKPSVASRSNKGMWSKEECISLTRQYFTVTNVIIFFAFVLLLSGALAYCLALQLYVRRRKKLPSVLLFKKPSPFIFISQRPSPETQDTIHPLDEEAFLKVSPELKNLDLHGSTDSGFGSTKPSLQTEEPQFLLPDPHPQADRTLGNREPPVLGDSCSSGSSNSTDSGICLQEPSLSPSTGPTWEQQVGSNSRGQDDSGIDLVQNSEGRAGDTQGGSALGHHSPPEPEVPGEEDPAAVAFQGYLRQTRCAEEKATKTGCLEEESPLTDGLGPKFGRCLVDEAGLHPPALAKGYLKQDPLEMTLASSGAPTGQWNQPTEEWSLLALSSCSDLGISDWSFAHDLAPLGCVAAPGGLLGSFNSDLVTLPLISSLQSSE
Nature of the assay: Biolayer interferometry kinetic assay, binding to IL-10Ra. The note with it: read-out: ka (association constant). The protocol:
as §1
To measure the binding ability of the designed and negative control peptides (NM25, NK20, NK20a, and control scramble peptide CG20) to the receptor IL-10Ra in vitro, BLI experiments were performed. […] When binding with IL-10Ra, the association constant (ka) of NK20 and NK20a was 1.02 × 10^4 (1/Ms) and 8.14 × 10^3 (1/Ms), respectively. The ka values of the refined peptides were approximately 12-fold higher than that of NM25. […] The equilibrium dissociation constant (KD) of NK20a interactions with IL-1R1was approximately 2000 times greater than that with IL-10Ra, and the calculated dissociation constant of NK20a interactions with IL-1R1 was to be 5000 times greater than that with IL-10Ra interactions (Table 2). […] As a result, NK20a was used for further investigations in this study.
Fig. 3 BLI kinetic assays of the designed peptides binding to the receptor IL-10Ra. Wavelength shift curves show the association and dissociation of the designed peptides (a) NM25, (b) NK20, (c) NK20a, (d) CG20 binding to the IL-10 receptor, and (e) NK20a binding to a control receptor IL-1R1 at various concentrations. Dissociation was recorded at 120 s after the binding started (black dotted line).

Ends that are not written are not given here.

With NMLRNLRNAFSRVKTFFQMK [NK20a], the kon was found to be 18300 M⁻¹ s⁻¹ on IL-1R1 and 8140 M⁻¹ s⁻¹ in assay [1].
